What was measured:
[1] = target: T1, G-rich oligonucleotide binding protein / nucleolin (Homo sapiens, UniProt P19338); assay: Protein binding, summary statements (EMSA); conditions: summary statement
T1 construct: endogenous in cells; MDA-MB-231)
Description: (§1) By G-rich oligonucleotide (GRO) it is meant that the oligonucleotides consist of 4-100 nucleotides (preferably 10-30 nucleotides) with DNA, RNA, 2′-O-methyl, phosphorothioate or other chemically similar backbones. Their sequences contain one or more GGT motifs. The oligonucleotides have antiproliferative activity against cells and bind to GRO binding protein and/or nucleolin.
Additionally, the present invention provides a method for selecting oligonucleotides that bind to nucleolin. The method utilizes an electrophoretic mobility shift assay (EMSA), as described below, to screen for oligonucleotides that bind strongly to nucleolin and which, therefore, would be expected, according to the present invention, to have anti-proliferative activity. Oligonucleotides to be screened as potential antiproliferative agents are labeled and then incubated with nuclear extracts in the absence or presence of unlabeled competitor oligonucleotide and are allowed to react. The reaction mixtures are then electrophoresed and mobility shifts and/or bond intensity can be used to identify those oligonucleotides which have bound to the specific protein.
Alternatively, unlabeled compounds to be screened are incubated with nuclear extracts in the presence of labeled oligonucleotide (for example 5′-TTAGGGTTAGGGTTAGGG TTAGGG) (SEQ ID NO: 20) and binding is assessed by a decrease in the intensity of the shifted band, as in FIG. 6B.

[2] = tested on: breast cancer cells; assay: Summary statements on growth of breast cancer cells / antiproliferative activity; type: cell-based; conditions: for modulate the growth of breast cancer cells and/or compete for binding to the G-rich oligonucleotide binding protein (EMSA): and/or statement, FIGS. 6 and 7; for antiproliferative activity: cells not given
Description: as §1

[3] = tested on: MDA-MB-231 breast cancer cells; assay: MTT cell growth assay, MDA-MB-231 cells; type: cell-based, human; conditions: for antiproliferative activity, MDA-MB-231: single 10 uM dose, FIG. 7A
Description: Cells were plated at low density ([…] cells per well, depending on cell line) in the appropriate serum-supplemented medium in 96-well plates (one plate per MTT assay time point) and grown under standard conditions of cell culture. The following day (day 1) oligonucleotide, or water as control, was added to the culture medium to give a final concentration of 15 uM. Further oligonucleotide, equivalent to half the initial dose, was added to the culture medium on days two, three and four. Cells were assayed using the MTT assay (Morgan (1998) Methods. Mol. Biol. 79, 179-183) on days one, three, five, seven and nine after plating. The culture medium was not changed throughout the duration of the experiment (which was the time required for untreated cells to grow to confluence). Experiments were performed in triplicate and bars represent the standard error of the data. For the experiment shown in FIG. 7A, MDA-MB-231 breast cancer cells (5×10^2 cells per well) were plated in a 96-well plate. After twenty-four hours, a single dose of oligonucleotide, or equal volume of PBS as a control, was added to the culture medium to a final concentration of 10 uM. Viable cells were assessed seven days after plating using the MTT assay. For the experiment using 3′-unmodified oligonucleotides (FIG. 7D), serum-supplemented medium was replaced by serum-free medium containing oligonucleotide (or serum-free medium alone in control wells). After incubation at 37° C. for four hours, fetal calf serum (Life Technologies, Inc.) was added to the medium to give 10% v/v.

[4] = target: T2, TEL-binding protein (GRO-binding protein/nucleolin, MDA-MB-231 nuclear extracts) (Homo sapiens, UniProt P19338); assay: Competitive EMSA, labeled TEL and MDA-MB-231 nuclear extracts; conditions: for competition with TEL for binding to the nuclear protein: unlabeled competitor, 10-fold molar excess, FIG. 7B
T2 construct: Nuclear and cytoplasmic extracts from MDA-MB-231 cells were prepared using the protocol described in F. M. Ausubel et al; endogenous in cells; host or cells: MDA-MB-231 nuclear extract, prepared in house
T2 sequence (P19338 whole entry): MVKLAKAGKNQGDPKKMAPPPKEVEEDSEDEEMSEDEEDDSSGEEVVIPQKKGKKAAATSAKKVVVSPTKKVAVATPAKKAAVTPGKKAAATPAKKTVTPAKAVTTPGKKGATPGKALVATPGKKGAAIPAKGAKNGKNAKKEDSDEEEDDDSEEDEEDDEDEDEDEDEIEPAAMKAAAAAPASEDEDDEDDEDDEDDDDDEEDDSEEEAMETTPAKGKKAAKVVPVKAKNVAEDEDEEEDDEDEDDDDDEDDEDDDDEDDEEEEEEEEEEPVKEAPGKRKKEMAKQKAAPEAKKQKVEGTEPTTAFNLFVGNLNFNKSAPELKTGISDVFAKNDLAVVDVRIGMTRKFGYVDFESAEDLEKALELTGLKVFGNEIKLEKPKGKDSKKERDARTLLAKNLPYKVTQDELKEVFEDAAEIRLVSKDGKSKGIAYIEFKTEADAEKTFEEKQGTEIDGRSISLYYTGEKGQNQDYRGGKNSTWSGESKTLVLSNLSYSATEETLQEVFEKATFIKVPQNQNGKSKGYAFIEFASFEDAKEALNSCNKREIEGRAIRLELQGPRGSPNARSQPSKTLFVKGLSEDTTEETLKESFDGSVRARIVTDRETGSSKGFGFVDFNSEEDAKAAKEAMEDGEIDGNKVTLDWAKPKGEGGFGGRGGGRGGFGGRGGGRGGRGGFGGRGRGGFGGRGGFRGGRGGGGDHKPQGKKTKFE

[5] = Detection of G-quartets by UV thermal denaturation/renaturation; type: physicochemical; conditions: absorbance at 295 nm; for G-quartet formation (UV annealing curve): FIG. 4
Description: Oligonucleotides were resuspended in Tm buffer (20 mM Tris HCl, pH 8.0, 140 mM KCl, 2.5 mM MgCl2) at a concentration such that A260=0.6 (molar concentrations ranged from […]). Samples were annealed by boiling for five minutes and allowing to cool slowly to room temperature and overnight incubation at 4° C. Thermal denaturation/renaturation experiments were carried out using an Amersham Pharmacia Biotech Ultrospec 2000 instrument equipped with a Peltier effect heated cuvette holder and temperature controller (Amersham Pharmacia Biotech). Absorbance at 295 nm was monitored over a temperature range of 25-95 or 20-90° C. at a heating/cooling rate of 0.5° C./min. To investigate the formation of G-quartet structures by the G-rich oligonucleotides, a U.V. melting technique described by […] et al. (1998) FEBS Lett. 435, 74-78 was used. This method relies on the fact that dissociation of G-quartets leads to a decrease in absorbance at 295 nm and is reported to give a more reliable indication of intramolecular G-quartet formation than measurement at 260 nm.

[6] = target: T3, 106 kDa nuclear protein (p106, GRO-binding protein/nucleolin) (Homo sapiens, UniProt P19338); assay: Southwestern blot of HeLa nuclear extracts; conditions: 32P-labeled oligonucleotide, 4° C.; FIG. 6D
T3 construct: HeLa nuclear extracts used in EMSAs were purchased from Promega Inc. (bandshift grade); host or cells: HeLa nuclear extract (bandshift grade), purchased
T3 sequence (P19338 whole entry): as above
Description: Nuclear extracts were electrophoresed on a 8% polyacrylamide-SDS gel and transferred to polyvinylidene difluoride (PVDF) membrane by electroblotting using a Tris glycine/methanol (10% v/v) buffer. Immobilized proteins were denatured and renatured by washing for thirty minutes at 4° C. with 6 M guanidine. HCl followed by washes in 1:1, 1:2 and 1:4 dilutions of 6M guanidine in HEPES binding buffer (25 mM HEPES pH 7.9, 4 mM KCl, 3 mM MgCl2). The membrane was blocked by washing for one hour in a 5% solution of non-fat dried milk (NDM) in binding buffer.
Hybridization of the labeled oligonucleotide (1-4×10^6 cpm) took place for two hours at 4° C. in HEPES binding buffer supplemented with 0.25% NDM, 0.05% Nonidet P […] salmon sperm DNA and […] of an unrelated, mixed sequence 35-mer oligonucleotide (5′-[…] CTTCCTTCCTCTCCA-3′SEQ ID No: 19). Membranes were washed in binding buffer and visualized by autoradiography.
The molecular weight of the nuclear protein was more accurately determined by Southwestern blotting. HeLa nuclear extracts were electrophoresed on an 8% polyacrylamide-SDS gel and transferred to a PVDF membrane. The membrane was blocked and cut into strips. Each strip was incubated at 4° C. with a 32P-labeled G-rich oligonucleotide in the presence of unrelated unlabeled double stranded and single stranded DNA to block non-specific binding.

[7] = tested on: MDA-MB-231 breast cancer cells; assay: Chemotherapeutic agent and GRO combination, MTT assay; type: cell-based, human; conditions: cisplatin 0.5 µg/ml, GR029A 8 uM added after two hours, MTT after six days
Description: Cisplatin (in 1% DMSO solution to give a final concentration of […]) was added to the medium of MDA-MB-231 breast cancer cells growing in culture. After two hours, GR029A (in PBS solution to give a final concentration of 8 uM) was added to the medium. After six days, the relative number of viable cells was determined using the MTT assay. Cells treated with GR029A alone received an appropriate volume of 1% DMSO in place of cisplatin. Cells treated with cisplatin alone received an appropriate volume of PBS in place of GR029A.

[8] = target: T4, GRO-binding protein/nucleolin (HeLa nuclear extracts) (Homo sapiens, UniProt P19338); assay: UV cross-linking of oligonucleotides to HeLa nuclear extracts; conditions: labeled oligonucleotide with HeLa nuclear extracts; FIG. 6C
T4 construct: HeLa nuclear extracts used in EMSAs were purchased from Promega Inc. (bandshift grade); host or cells: HeLa nuclear extract (bandshift grade), purchased
T4 sequence (P19338 whole entry): as above
Description: For the UV crosslinking experiments, samples were incubated as described above (EMSA). They were then placed on ice and irradiated at 5 cm from the source using the “autocross link” function of a Stratagene UV Stratalinker. Following irradiation, samples were electrophoresed under denaturing conditions on a 8% polyacrylamide-SDS gel using a standard Tris glycine buffer and visualized by autoradiography.
To determine the approximate molecular weight of the protein involved in complex A, and to confirm that competition for this complex results from direct binding of the protein to oligonucleotides, a UV cross-linking study was conducted. 5′-Labeled oligonucleotides and HeLa nuclear extracts were incubated alone or in the presence of unlabeled competitor oligonucleotides.
The samples were then irradiated with UV light resulting in cross-link formation between protein residues and thymidines in the oligonucleotide. The protein was thus radiolabeled and could be detected on a SDS-polyacrylamide gel.

T1 sequence (P19338 whole entry): as above

Compound | protein binding [1] | modulate the growth of breast cancer cells and/or compete for binding to the G-rich oligonucleotide binding protein (EMSA) [2] | antiproliferative activity [2] | antiproliferative activity, MDA-MB-231 [3] | also measured
5′-TTTGGTGGTGGTGGTTTGGGTGGTGG TGG-3′ (TTTGGTGGTGGTGGTTTGGGTGGTGGTGG; aptamer; DNA, backbone not given here; further chemistry not fully specified) [GR029-5] | protein binding | have been shown to modulate the growth of breast cancer cells and/or to compete for binding | demonstrated antiproliferative activity | – | –
5′-TTTGGTGGTGGTGGTTGTGG TGGTGGTG-3′ (TTTGGTGGTGGTGGTTGTGGTGGTGGTG; DNA, backbone not given here; further chemistry not fully specified) [GR028A] | – | – | – | moderate antiproliferative activity | competition with TEL for binding to the nuclear protein [4]: able to compete
heparin [reference compound] | – | – | – | – | growth of MDA-MB-231 cells, heparin ([3]; 20 units/ml (approximately 0.12 mg/ml), FIG. 7C): no effect on cell growth; competition for protein binding in competitive EMSA, heparin ([4]; 0.02 units/ml (approximately 0.12 ug/ml)): No competition
5′-TGGTGGTGGTGGT-3′ (DNA, backbone not given here; further chemistry not fully specified) [GR029-13] | – | have been shown to modulate the growth of breast cancer cells and/or to compete for binding | – | – | –
GRO15B: inactive G-rich oligonucleotide, SEQ ID NO: 22 (TTGGGGGGGGTGGGT; DNA, backbone not given here; further chemistry not fully specified) | – | – | – | inactive | G-quartet formation (UV annealing curve) [5]: no transition characteristic of intramolecular G-quartet formation; hybridization to protein band at 106 kDa (Southwestern blot) [6]: hybridized only weakly
5′-GGTTGGGGTGGGTGGGGTG GGTGGG-3′ (GGTTGGGGTGGGTGGGGTGGGTGGG; DNA, backbone not given here; further chemistry not fully specified) [GR025A] | – | – | – | moderate antiproliferative activity | competition with TEL for binding to the nuclear protein [4]: able to compete
5′-GGTGGTGGTGGTTGT GGTGGTGGTGGTTT-3′ (GGTGGTGGTGGTTGTGGTGGTGGTGGTTT; DNA, backbone not given here; further chemistry not fully specified) [GR029-6] | protein binding | – | demonstrated antiproliferative activity | – | –
5′-TTTGGTGGTGGT GGTGTGGTGGTGGTGG-3′ (TTTGGTGGTGGTGGTGTGGTGGTGGTGG; DNA, backbone not given here; further chemistry not fully specified) [GR028B] | protein binding | – | demonstrated antiproliferative activity | – | –
N.N.[Cl][Pt][Cl] [cis-platin, reference compound] | – | – | – | – | growth modulation [7]: 29%
5′-GTTGTTTGGGGTGG-3′ (DNA, backbone not given here; further chemistry not fully specified) [GRO14A] | – | – | – | moderate antiproliferative activity | competition with TEL for binding to the nuclear protein [4]: able to compete
5′-TTTGGTGGTGGTGGTGGTGGTGGTGGTGG-3′ (aptamer; DNA, backbone not given here; further chemistry not fully specified) [GR029-3] | protein binding | have been shown to modulate the growth of breast cancer cells and/or to compete for binding | demonstrated antiproliferative activity | – | –
5′-TTAGGGTTAGGGTTAGGGTTAGGG [TEL, reference compound] | – | – | – | – | growth of MDA-MB-231 cells, unmodified oligonucleotides ([3]; 10 uM in serum-free medium 4 h, then 10% fetal calf serum, day 7, FIG. 7D): modulated the growth of cells; UV cross-linked protein complex (approximately 100 kDa) [8]: crosslinked to a protein; G-quartet formation (UV annealing curve) [5]: clear transition; melting temperature of G-quartet transition ([5]; Tm buffer pH 8.0, 140 mM KCl, 0.5° C./min): 66 °C; competition for protein binding in competitive EMSA ([4]; 10 nM unlabeled oligonucleotide, […]): competed strongly
5′-TTTGGTGG TGGTGGTTTTGGTGGTGGTGG-3′ (TTTGGTGGTGGTGGTTTTGGTGGTGGTGG; aptamer; DNA, backbone not given here; further chemistry not fully specified) [GR029-2] | protein binding | have been shown to modulate the growth of breast cancer cells and/or to compete for binding | demonstrated antiproliferative activity | – | –

— US8114850B2, “Antiproliferative activity of G-rich oligonucleotides and method of using same to bind to nucleolin” (Advanced Cancer Therapeutics, LLC, priority 1999, dated 2012)
